Results taken from patent publication US20230330134A1, “METHOD OF PROPHYLAXIS OF CORONAVIRUS AND/OR RESPIRATORY SYNCYTIAL VIRUS INFECTION” (Starpharma Pty Ltd., priority 2020, published 2023).
“And” between values parts separate entries of the source, which are not always exact repeats. Equal entries are not always repeated. Where two headings read alike, the source gives them in different places.

What was measured:
Calu-3 cells = conditions: Day 4
[1] = test system: SARS-CoV-2 (2019-nCoV/USA-WA1/2020); assay: microbe, parasite or virus in culture; type: cell-based; conditions: Day 4 post-infection
[2] = rats
[3] = test system: SARS-CoV-2 hCoV-19/Australia/VIC01/2020; assay: microbe, parasite or virus in culture; type: cell-based
[4] = test system: Coronavirus strain 229E (ATCC #VR-740); conditions: final 28.76 mg/mL; for CPE in four replicates, Test: MRC-5
[5] = biological target: SARS-CoV-2 spike RBD recombinant protein (Severe acute respiratory syndrome coronavirus 2, UniProt P0DTC2); type: cell-based; conditions: 1 mg/mL in PBS, 1 hour prior to challenge; confocal microscopy
HCT-8 cells = conditions: no virus
MRC-5 cells = conditions: no virus
[6] = test system: Coronavirus strain NL63 (ZeptoMetrix Corp. #0810228CF); conditions: final 28.76 mg/mL; for CPE in four replicates, Test: Vero
Hep-2 cells = assay: Product cytotoxicity (TC50), CCK-8 assay; type: cell-based
[7] = test system: SARS-CoV-2 (2019-nCoV/USA-WAl/2020 strain); type: in vivo, human ACE2 transgenic mice K18-hACE2; conditions: 1%, 3% or 5% SPL7013 in PBS intranasally for 7 days (0.5, 1.5, 2.5 mg daily); significant vs control at the highest dose
[8] = test system: SARS-CoV-1 (Urbani) Spike-pseudotyped GFP reporter lentiviral particles; type: cell-based
[9] = test system: SARS-CoV-2 (hCoV-19/Australia/VIC01/2020); conditions: mixed with virus for 1 hour prior to infection of Vero E6 cells; n=1
[10] = test system: SARS-CoV-2 2019-nCoV/USA-WAl/2020; assay: Antiviral activity in primary human bronchial epithelial cells (HBEpC); type: cell-based; conditions: 1.1, 3.3 and 10 mg/mL added 1 hour prior to infection, day 4, maximum
Vero E6 cells = conditions: Day 4
[11] = test system: SARS-CoV-2 (hCoV-19/Australia/VIC01/2020); type: cell-based; conditions: 0.345 mg/mL added 0 min to 6 h post-infection; Vero E6; MOI 1; all time points
[12] = 60 seconds exposure, dilution (-Log10) -6
[13] = 60 seconds exposure, dilution (-Log10) -7
[14] = 60 minutes exposure, dilution (-Log10) -7

astodrimer sodium [SPL7013]
CC50 (Calu-3 cells): 21760 µg/mL
EC50 ([1]; added 1-hour post-infection, Calu-3): 30 µg/mL
EC50 ([1]; added 1-hour post-infection, Vero E6): 19 µg/mL
EC50 ([1]; added 1-hour pre-infection, Calu-3): 37 µg/mL
EC50 ([1]; added 1-hour pre-infection, Vero E6): 32 µg/mL
EC50 ([1]; added at time of infection, Calu-3): 35 µg/mL
EC50 ([1]; added at time of infection, Vero E6): 20 µg/mL
SPL7013 in pooled plasma sample ([2]; 1% group, one 3 hr sample (called an aberration)): 0.635 µg/mL
SPL7013 in pooled plasma samples (LLOQ) ([2]; 1% or 3% Nasal Spray 4 times daily for 7 days, Day 1 and Day 7, pre-dose to 6 hr, all samples but one): < 0.5 µg/mL
EC50 ([3]; added 1 hour post-infection, Vero cells, MOI 0.05, CPE by MTT after 4 days): 400 µg/mL
EC50 ([3]; added 1 hour pre-infection, Vero cells, MOI 0.05, CPE by MTT after 4 days): 420 µg/mL
EC50 ([3]; pre- and post-infection assays, read-out: EC50): 25 µM and 24 µM
CPE in four replicates, Test [4, 12]: 0000
CPE in four replicates, Test [4, 13]: 0000
Log10 Reduction ([4]; 60 seconds exposure): 0.75 log10
Percent Reduction ([4]; 60 seconds exposure): 82.22%
TCID50 (log10), Test ([4]; 60 seconds exposure): 5.50 log10
CPE in four replicates, Test ([4]; 60 minutes exposure, dilution (-Log10) -5): +0+0
CPE in four replicates, Test [4, 14]: 0000
Log10 Reduction ([4]; 60 minutes exposure): 0.75 log10
Percent Reduction ([4]; 60 minutes exposure): 82.22%
TCID50 (log10), Test ([4]; 60 minutes exposure): 5.25 log10
binding of SARS-CoV-2 spike protein to cells expressing the hACE2 receptor [5]: no detectable binding
TCID50 (log10), CTC (Cytotoxicity Control) (HCT-8 cells): 1.50 log10
CPE in four replicates, CTC (Cytotoxicity Control) (HCT-8 cells; dilution (-Log10) -2): 0000
CPE in four replicates, CTC (Cytotoxicity Control) (HCT-8 cells; dilution (-Log10) -3): 0000
CPE in four replicates, CTC (Cytotoxicity Control) (HCT-8 cells; dilution (-Log10) -4): 0000
TCID50 (log10), CTC (Cytotoxicity Control) (MRC-5 cells): 1.50 log10
CPE in four replicates, CTC (Cytotoxicity Control) (MRC-5 cells; dilution (-Log10) -2): 0000
CPE in four replicates, CTC (Cytotoxicity Control) (MRC-5 cells; dilution (-Log10) -3): 0000
CPE in four replicates, CTC (Cytotoxicity Control) (MRC-5 cells; dilution (-Log10) -4): 0000
CPE in four replicates, Test [6, 12]: 0000
CPE in four replicates, Test [6, 13]: 0000
Log10 Reduction ([6]; 60 seconds exposure): 0.50 log10
TCID50 (log10), Test ([6]; 60 seconds exposure): 5.25 log10
Percent Reduction ([6]; 60 seconds exposure, listed as SPL7013 aqueous solution): 68.38%
CPE in four replicates, Test ([6]; 60 minutes exposure, dilution (-Log10) -6): 0000
CPE in four replicates, Test [6, 14]: 0000
Log10 Reduction ([6]; 60 minutes exposure): 0.75 log10
Percent Reduction ([6]; 60 minutes exposure): 82.22%
TCID50 (log10), Test ([6]; 60 minutes exposure): 5.00 log10
TC50, Best Fit Value (Hep-2 cells; Post Treatment): 30900 µg/mL
TC50, Best Fit Value (Hep-2 cells; PreTreatment): 35640 µg/mL
viral copies (qPCR) in nasal swabs at Day 7 [7]: dose dependent decrease
binding/infection of Vero E6 cells by spike-pseudotyped lentivirus (GFP-positive cells, FACS) [8]: potently inhibited
EC50 [9]: 1.83 µM
reduction of infection in the plaque assay [10]: up to 95%
reduction of infection vs virus control by nucleocapsid ELISA [10]: up to 98%
CC50 (Vero E6 cells): 15090 µg/mL
infectious virus titer in supernatant (TCID50) at 8 hours post-infection [11]: below the lower limit of detection
